“Also recorded” adds a separate entry of the source.
How the values were obtained:
MIAPACA2 cells [1] = assay: 3D growth assay; format: cell-based, human; settings: HPDL KO cells, 1 mM, three days
Method: For the 3D growth assay, approximately 2,500 cells were seeded into a low-attachment 96-well plate containing DMEM+10% diaFBS and 5% Matrigel. Cells were grown for three days at 37° C. and 5% CO2. Cells were also treated or without 1 mM 4-HMA or 4-HB for the duration of the assay. To measure 3D growth with the CyQUANT Cell Proliferation Assay kit, plates were frozen at −80° C., thawed at room temperature, and equal volumes of 2× CyQUANT reagent+lysis buffer was added to the wells. As a control, wells containing media+5% Matrigel and no cells were used as blanks. CyQUANT measurements were performed as described in the manufacturer's instructions.

MIAPACA2 cells [2] = assay: Oxygen consumption rate (OCR) in spheroids; format: cell-based, human; settings: HPDL KO cells, 1 mM, 3D conditions
Method: For measurement of oxygen consumption in spheroids, oxygen consumption rate (OCR) was measured with an XF96 analyzer (Seahorse Bioscience) and the Seahorse XFe96 Spheroid FluxPak, as described by the manufacturer's protocol. Spheroids were generated by seeding 40,000 cells per well into a low-attachment U-bottom 96-well plate with DMEM+10% diaFBS and 5% Matrigel. If indicated, spheroids were treated with or without 1 mM 4-HMA or 4-HB for the duration of the assay. Spheroids were allowed to form for three days before measuring oxygen consumption measurement. Each spheroid was transferred to a Spheroid FluxPak plate containing DMEM (25 mM glucose, 4 mM glutamine, and without pyruvate, phenol red and bicarbonate), and allowed to equilibrate for 1 hr at 37° C., no CO2. OCR measurements were normalized to size of the spheroid.

human cells = assay: 18O2-GASSP labelling of human cells, untargeted polar metabolomics, with or without IOX1; format: cell-based; settings: 18O labelling of the metabolite in cells treated with IOX1 (dioxygenase inhibitor), 24 hours
Method: To map the molecular fate of O2 in metabolic pathways in living cells, GASSP was used to carry out ^18O2 labelling in cell lines of different tissue origins at ^18O2 concentrations that represented physiological (3%), hypoxic (1%), and severely hypoxic (0.2%) oxygen tensions found in tissues and tumours^7. At the end of each run, polar metabolites were extracted and untargeted polar metabolomics using liquid chromatography-high resolution mass spectrometry (LC-MS) were carried out to identify metabolites labeled with ^18O.
A list of unique features identified by untargeted metabolomics that were >0.25% (natural abundance of ^18O is 0.2%) labelled by ^18O atoms in each cell line at each oxygen tension was generated. In addition, background signal was controlled by requiring that ^18O labeled peaks had to have a signal that was two-fold greater than naturally occurring isotopes found in non-labelled (^16O) metabolite cell extracts. To determine the proportion of unique ^18O labelled features that were due to dioxygenase activity, cells were treated with a pan-dioxygenase inhibitor (IOX1) at concentrations that inhibit iron-dependent dioxygenases, such as the HIF1α prolyl hydroxylases (FIGS. 5E-5F) and identified ^18O labelled polar metabolites. This list of ^18O metabolites was generated by identifying all features in the unlabelled samples, filtering these features against blank samples to remove background peaks, and calculating the fractional ^18O labelling with the assumption that a metabolite would have no more than three oxygen atoms labelled, followed by manual curation of labelled features (FIG. 1B and FIG. 5G). […] These ^18O-labelled features were termed the oxy-metabolome.
To determine the identities of the labeled metabolites, the list of ^18O labelled features was annotated to their corresponding unlabelled metabolites using retention time matching, tandem mass spectrometry (MS2) fragmentation patterns, and database searching.
All steps involved in setting up labelling with ^18O2 were performed at room temperature and inside a chemical fume hood. The procedure may vary depending on the type and number of tissue culture plates in the chamber and the amount of media in the plates. Users must test the system by using ^16O2:CO2:N2 or other unlabelled gases to optimize conditions for their needs and avoid consumption of costly labelled gases. Cells were treated with or without 5 μM MG132, 500 μM IOX1, 250 μM DFO, or 70 μM ascorbate, before placing tissue culture plates into the modular incubator chamber (MIC) containing a wireless oxygen sensor and a 15 cm dish of water to maintain humidity. Next, the clamps were closed to form an air-tight seal between the lid and platform of the MIC. […] N2 flushing was repeated for a total of three times, or until the sensor in the chamber stabilized at 0% O2 for 10 minutes.

HPDL [3] = assay: HPDL levels in the cell after addition of HPDL products; format: cell-based
MIAPACA2 cells [4] = assay: Pulse-chase study with tyrosine-derived intermediates after two weeks of 13C9-Tyr labelling; format: cell-based, human; settings: for effect on intracellular levels of the other Tyr-derived metabolites: exogenous unlabelled metabolite; for increase of the fraction of unlabelled (non-labelled) CoQ10: unlabelled intermediate added in the presence of 13C9-Tyr, 21% O2
Method: Using the same experimental scheme, the incorporation of Tyr-derived metabolites into CoQ10 was measured. […] For metabolomics, briefly, cells were washed in 4° C. 0.9% saline and metabolites were extracted with 46% methanol:23% H2O:[…] chloroform that contained a labelled amino acid standard mix (MSK-A2-1.2, Cambridge Isotope Laboratories, Inc.). Enzymatic assay samples were extracted using 80% methanol: 20% H2O that contained labelled amino acid standards. Extracts were placed into 1.5 mL Eppendorf tubes, vortexed at 4° C. for 10 min and centrifuged at 4° C. for 10 min at 17,200×g in a microcentrifuge. The aqueous phase was transferred to vials for GC-MS or Eppendorf tubes for LC-MS. Polar samples were evaporated in a […] and samples were resolved by GC-MS or LC-MS. Lipid samples were dried using a stream of N2 (for ^18O labelling studies) or air. Metabolite and lipid extracts were submitted to the […] Metabolomics Core Resource Laboratory. For polar metabolomics, the LC column was a Millipore ZIC-pHILIC (2.1×150 […], 5 μm bead size) coupled to a Dionex […] 3000 system. The column oven temperature was held at 25° C. The flow rate was 100 μL/min, and the injection volume was 1 μL. Buffer A was 10 mM ammonium carbonate in water, pH 9, and Buffer B was neat acetonitrile. The gradient profile was 80-20% B (0-30 min), 20-80% B (30-31 min), and 80-80% B (31-42 min). MS Analyses were carried out on a Thermo Q Exactive HF mass spectrometer using a heated electrospray ionization (HESI) source. The method duration was 30 min using a polarity-switching, top 5 method. The spray voltage for both positive and negative ion modes was 3.5 kV. The capillary temperature was 320° C. with a maximum spray current of 100 ρA. The full MS scan was carried out at 120,000 resolution with a scan range of 67-1000 m/z. For ^18O2 labelling experiments, full MS scans were carried out at 240,000 resolution at the same scan range. Tandem MS spectra were obtained at 15,000 resolution. All data were acquired in profile mode. Peak heights were analyzed using Xcalibur (ThermoFisher Scientific). Lipid metabolomics were acquired using a Waters CSH-C18 (2.1×100 mm, 1.7 μm) column coupled to a Dionex […] 3000 system. The column oven temperature was held at 55° C. The flow rate was 300 μL/min and the injection volume was 1 μL. Buffer A was 60:40 acetonitrile:water, 0.1% formic acid and Buffer B was 90:10 isopropanol:acetonitrile, 10 mM ammonium formate. The gradient profile was 40-43% B (0-1.25 min), 43-50% B (1.25-2 min), 50-54% B (2-11 min), 54-70% B (11-12 min), 70-99% B (12-18 min), […], 99-40% B (23-24 min), hold at 40% B (1 min). MS Analyses were carried out on a Thermo Q Exactive HF mass spectrometer using a heated electrospray ionization (HESI) source. The method duration was 20 minutes using a polarity-switching, top 10 method. The spray voltage for both positive and negative ion modes was 3.5 kV. The capillary temperature was 320° C. with a maximum spray current of 100 ρA. The full MS scan was carried out at 120,000 resolution with a scan range of 350-2000 m/z. For ^18O2 labelling experiments, full MS scan was carried out at 240,000 resolution at the same scan range. Tandem MS spectra were obtained at 15,000 resolution. All data were acquired in profile mode. Peak heights were analyzed using Xcalibur (ThermoFisher Scientific).

HPDL [5] = biological target: T1, HPDL (Homo sapiens, UniProt Q96IR7); assay: HPDL enzymatic assay with immunopurified HPDL-FLAG; format: biochemical; settings: 400 μM substrate, 37° C., 21% 16O2, 1 hour
T1 construct: made in house; host or cells: MIAPACA2 sgHPDL #3 (HPDL-knockout) cells stably infected with the pLenti6.2 lentiviral vector; anti-FLAG M2 magnetic bead immunoprecipitation
T1 sequence (Q96IR7 1-371): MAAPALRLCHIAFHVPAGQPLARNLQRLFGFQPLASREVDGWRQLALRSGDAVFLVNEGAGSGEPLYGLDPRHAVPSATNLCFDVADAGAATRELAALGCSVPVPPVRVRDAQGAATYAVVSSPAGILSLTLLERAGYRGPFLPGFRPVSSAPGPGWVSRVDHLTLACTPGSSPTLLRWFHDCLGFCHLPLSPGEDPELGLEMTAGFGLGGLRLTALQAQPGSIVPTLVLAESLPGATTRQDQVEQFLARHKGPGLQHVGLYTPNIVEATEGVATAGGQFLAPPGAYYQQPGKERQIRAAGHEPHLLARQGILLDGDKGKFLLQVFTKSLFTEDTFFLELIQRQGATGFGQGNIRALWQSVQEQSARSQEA
Method: Homogentisate, the product of HPD, was not produced in any of the present enzymatic assays. […] This directly confirmed that HPDL activity, and not a potential HPDL-interacting enzyme, was needed for 4-HMA synthesis.
For the HPDL enzymatic assay, cell lysates were generated in TNE lysis buffer (50 mM Tris-HCl pH 8.0, 150 mM NaCl, 2 mM EDTA, and 1% NP-40, supplemented with protease (ThermoFisher Scientific) and phosphatase (10 mM NaF, 10 mM β-glycerophosphate, and 10 mM sodium pyrophosphate) inhibitors. HPDL-FLAG was immunoprecipitated using anti-FLAG M2 magnetic beads (Millipore Sigma, M8823). Cell lysates were incubated with anti-FLAG M2 magnetic beads for 1 hour at 4° C. on a rotating platform. Beads were washed four times with TNE lysis buffer, and then 10% and 90% of the immunopurified protein was used for immunoblotting or enzymatic assay, respectively. […] At the end of the assay, 10 uL of assay buffer was retrieved and prepared for analysis by gas chromatography-mass spectrometry (GC-MS, see Metabolomics section).

Row | SMILES | 3D growth (MIAPACA2 cells [1]) | OCR (MIAPACA2 cells [2]) | IOX1 Sensitive (Yes/No) (human cells) | HPDL levels in the cell (HPDL [3]) | incorporation into CoQ10 (MIAPACA2 cells [4]) | effect on 4-HB levels (MIAPACA2 cells [4]; exogenous metabolite, 24 hours) | effect on intracellular levels of the other Tyr-derived metabolites (MIAPACA2 cells [4]; 24 hours) | increase of the fraction of unlabelled (non-labelled) CoQ10 (MIAPACA2 cells [4]; 24 hours) | 4-HMA production by HPDL from the substrate (HPDL [5])
1 | O=C(O)C(O)c1ccc(O)cc1 (racemic) [Metabolite 4-HMA, 2-hydroxy-2-(4-hydroxyphenyl)acetic acid] | increased | increased | Yes | reduce | incorporated into CoQ10 | minimal effect | had no effect on Tyr, 4-HPPA and 4-HPLA levels | 30% | 
2 | O=C(O)c1ccc(O)cc1 [Metabolite 4-HB, 4-hydroxybenzoic acid] | increased | increased |  | reduce |  |  | did not change Tyr, 4-HPPA, 4-HPLA, and 4-HMA levels | 30% | 
3 | O=C(O)C(=O)Cc1ccc(O)cc1 [Metabolite 4-HPPA, 4-hydroxyphenylpyruvate] |  |  |  |  |  |  |  | 30% | resulted in the generation of 4-HMA; also recorded: synthesized 4-HMA
4 | N[C@@H](Cc1ccc(O)cc1)C(=O)O [Tyr, tyrosine] |  |  | Yes |  |  |  |  |  | not

— US12558329B2 (New York University, priority 2021, dated 2026)
